pKi: −log10 of the molar value. “And” between values parts separate entries of the source, which are not always exact repeats. Equal entries are not always repeated.
Assays:
D(2) dopamine receptor [1] = molecular target: D(2) dopamine receptor (Rattus norvegicus, UniProt P61169)
D(2) dopamine receptor [2] = molecular target: D(2) dopamine receptor (Oryctolagus cuniculus, UniProt G1T1Q0)
Sequence of D(2) dopamine receptor (Oryctolagus cuniculus, UniProt G1T1Q0) (G1T1Q0 whole entry): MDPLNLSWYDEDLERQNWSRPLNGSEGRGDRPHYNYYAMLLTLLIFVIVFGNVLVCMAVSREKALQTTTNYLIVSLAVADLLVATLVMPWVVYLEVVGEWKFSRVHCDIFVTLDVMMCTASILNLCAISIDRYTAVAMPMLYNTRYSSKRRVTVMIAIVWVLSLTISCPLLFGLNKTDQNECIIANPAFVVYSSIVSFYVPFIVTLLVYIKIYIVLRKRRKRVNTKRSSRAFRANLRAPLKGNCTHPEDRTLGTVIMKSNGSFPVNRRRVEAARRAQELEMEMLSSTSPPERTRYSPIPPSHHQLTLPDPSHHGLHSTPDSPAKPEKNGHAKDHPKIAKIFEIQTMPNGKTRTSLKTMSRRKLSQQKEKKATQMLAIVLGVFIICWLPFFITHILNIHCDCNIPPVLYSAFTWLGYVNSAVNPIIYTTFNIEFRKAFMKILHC

Sequence of D(2) dopamine receptor (Rattus norvegicus, UniProt P61169) (P61169 whole entry): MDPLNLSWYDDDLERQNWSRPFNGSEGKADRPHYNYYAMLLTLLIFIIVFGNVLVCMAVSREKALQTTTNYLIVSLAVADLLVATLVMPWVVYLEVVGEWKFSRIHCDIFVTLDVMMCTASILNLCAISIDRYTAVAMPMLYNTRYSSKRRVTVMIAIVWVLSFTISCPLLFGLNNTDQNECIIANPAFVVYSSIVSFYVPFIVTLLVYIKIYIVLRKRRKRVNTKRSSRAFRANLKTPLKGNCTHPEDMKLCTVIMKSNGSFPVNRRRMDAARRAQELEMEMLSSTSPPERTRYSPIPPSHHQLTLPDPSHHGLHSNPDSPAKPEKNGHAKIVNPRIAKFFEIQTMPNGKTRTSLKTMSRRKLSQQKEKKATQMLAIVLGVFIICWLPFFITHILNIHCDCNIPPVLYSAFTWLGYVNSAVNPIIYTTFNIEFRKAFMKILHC

| SMILES | pKi (D(2) dopamine receptor [1]) | pKi (D(2) dopamine receptor [2]) |
| --- | --- | --- |
| Cc1ccc(N(CC2=NCCN2)c2cccc(O)c2)cc1 [SMR000059054] | 5.82 and 6.12 | 5.92 |
| Nc1nc2c(ncn2[C@@H]2O[C@H](COP(=O)(O)OP(=O)(O)OP(=O)(O)O)[C@@H](O)[C@H]2O)c(=O)[nH]1 [Dopamine+ (GTP+)] | 5.89 and 5.54 |  |
| NCCc1ccc(O)c(O)c1 |  | 6.60 and 6.70 |
| O=c1[nH]c2ccccc2n1CCCN1CCC(n2c(=O)[nH]c3cc(Cl)ccc32)CC1 |  | 8.48 and 8.31 |
| O=C(c1ccc(F)cc1)C1CCN(CCn2c(=O)[nH]c3ccccc3c2=O)CC1 [3-(2-{4-[(4-fluorophenyl)carbonyl]piperidin-1-yl}ethyl)-1,2,3,4-tetrahydroquinazoline-2,4-dione] | 6.14 and 6.24 | 6.06 |
| CCCN(CCC)CCc1ccc(O)c(O)c1 | 6.89 | 7.43 and 7.07 |
